Literature values, collected in patent publication US6727243B1, “Compositions comprising cefuroxime axetil” (Biochemie Gesellschaft m.b.H., priority 1998, dated 2004).

Conditions: oral administration; after consumption of food versus fastened state

CO/N=C(\C(=O)N[C@@H]1C(=O)N2C(C(=O)OC(C)OC(C)=O)=C(COC(N)=O)CS[C@H]12)c1ccco1 (stereo partly shown) [cefuroxime axetil, 1-acetoxyethyl ester of cefuroxime]
food effect on bioavailability: exhibit a food effect
